The values below come from patent publication US20110070186A1 (priority 2009, published 2011).

In this experiment the test system is DU-145 cells. It is filed as cell-based, human.

For `C=C1[C@@H](C)[C@H]2[C@H](Cc3ccccc3)NC(=O)[C@]23[C@H](OC(C)=O)/C=C/[C@@](C)(O)C(=O)[C@@H](C)C/C=C/[C@H]3[C@@H]1O` [Cytochalasin-D], the “Effect on cell migration (in words)” value was “did not migrate”; the “Relative Wound Density at 24 Hours, Mean” value is on record as 3.3 ± 0.2; the “Relative Wound Density at 24 Hours, Percent Relative to Media” value amounted to 4%.
